PMC8899516, “Structure-Activity Relationship Studies of 4-((4-(2-fluorophenyl)piperazin-1-yl)methyl)-6-imino-N-(naphthalen-2-yl)-1,3,5-triazin-2-amine (FPMINT) Analogues as Inhibitors of Human Equilibrative Nucleoside Transporters” (Frontiers in Pharmacology, 2022)

Key:
ENT1 [1] = test: Western blotting of ENT1 protein expression; format: cell-based, human; details: 50 µM, 24 h or 48 h
Method: PK15NTD/ENT1 and PK15NTD/ENT2 cells were grown to confluence in 10-cm culture dishes and treated with 50 µM of compound 3c or an equivalent volume of a vehicle (0.5% DMSO) for 24 h or 48 h. The cells were washed thrice with ice-cold PBS. Total protein was extracted by cell lysis in a lysis buffer (5 mM sodium monophosphate, pH 8) with a protease inhibitor cocktail (Sigma, St Louis, MO, United States; 1:1,000 [v/v]). The protein content was measured by bicinchoninic acid assay. Protein samples were separated by 12.5% sodium dodecyl sulfate–polyacrylamide gel electrophoresis (SDS-PAGE) and blotted onto polyvinylidene difluoride (PVDF) membranes. […] The membranes were then again washed, and the bound secondary antibodies were detected using an enhanced chemiluminescence kit (Bio-Rad, Hercules, CA, United States). […] To semi-quantify the ENT1 and ENT2 protein levels, the same membranes were washed three times with a stripping buffer for 10 min at room temperature, and the protein expression level of β-actin was measured using monoclonal mouse anti-β-actin primary antibodies (1:3,000 [v/v] dilution in a blocking solution). […]
FIGURE 5 Effects of compound 3c on cytotoxicity and protein expressions of ENT1 and ENT2. […] Total ENT1 and ENT2 from whole-cell lysates were also detected for a comparison. β-actin served as an internal reference. […]

ENT1 [2] = biological target: T1, ENT1 (Homo sapiens, UniProt Q99808); test: [3H]uridine uptake in PK15NTD/ENT1 cells; format: cell-based; details: [3H]uridine 1 μM, 1 min, PK15NTD/ENT1 cells; read-out: IC50 against ENT1
T1 construct: expressed in transfected cells
T1 sequence (Q99808 1-456): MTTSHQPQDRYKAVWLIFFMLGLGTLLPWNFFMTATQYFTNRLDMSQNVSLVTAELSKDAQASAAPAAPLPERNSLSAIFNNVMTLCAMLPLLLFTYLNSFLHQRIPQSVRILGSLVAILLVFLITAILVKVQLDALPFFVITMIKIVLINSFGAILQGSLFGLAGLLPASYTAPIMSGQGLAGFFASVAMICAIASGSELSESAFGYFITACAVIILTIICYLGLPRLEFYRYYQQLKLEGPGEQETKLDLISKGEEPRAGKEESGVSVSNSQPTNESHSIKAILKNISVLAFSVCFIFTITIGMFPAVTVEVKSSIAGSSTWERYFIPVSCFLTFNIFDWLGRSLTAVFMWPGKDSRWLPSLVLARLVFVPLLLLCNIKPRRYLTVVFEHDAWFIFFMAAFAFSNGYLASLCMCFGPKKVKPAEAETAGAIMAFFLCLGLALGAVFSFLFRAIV
Method: Nucleoside transporter-deficient porcine kidney fibroblast cells (PK15NTD) stably transfected with cloned human ENT1 or ENT2 ([Ward et al., 2000]) were used as the in vitro models. The cells were cultured in Dulbecco’s Modified Eagle’s Medium (DMEM) supplemented with 10% (v/v) foetal bovine serum, 0.5 mg/ml geneticin, 100 units/ml penicillin, 100 μg/ml streptomycin and 0.25 μg/ml of amphotericin B at 37°C in 5% CO2/95% air.
Confluent monolayers of PK15NTD/ENT1 and PK15NTD/ENT2 cells in 24-well plates were washed thrice with HEPES-buffered Ringer’s solution containing (mM): 135 NaCl, 10 glucose, 5 KCl, 5 HEPES, 3.33 NaH2PO4, 1.0 CaCl2, 1.0 MgCl2, 0.83 Na2HPO4; pH 7.4. The cells were incubated with different concentrations of FPMINT analogues (from 10 nM to 100 μM) containing [^3H]uridine (2 μCi/ml, 1 μM) for 1 min. Passive uridine uptake was determined by incubating the cells in HEPES-buffered Ringer’s solution containing [^3H]uridine in the presence of 0.5 mM NBMPR. The cells were rapidly washed five times with ice-cold phosphate-buffered saline (PBS). After air-drying, the cells were solubilised by overnight incubation in 500 μl of 5% Triton-X100. Next, 300 μl of the cell lysates were mixed with 2 ml of scintillation liquid. The radioactivity of each sample was quantified by a scintillation counter. The protein content in each well was determined spectrophotometrically using a commercial bicinchoninic acid assay (Pierce Biochemicals, Rockford, IL). Uptake values were expressed as picomoles of [^3H]uridine per milligram of cellular protein per minute.
All data were analysed by GraphPad Prism software (San Diego, CA, United States). Data are expressed as mean ± standard error (SE) of three experiments performed in triplicate. The IC50 values were determined from the dose-response curves fitted with a logistic function. For the kinetic study of [^3H]uridine uptake, apparent K m and V max values were determined from the Michaelis-Menten equation, and K i was determined from the X-intercept of linear regression. Analysis of variance and Student’s t-test were performed for multiple and paired variables, respectively. p values of <0.05 were considered to be statistically significant.

Cc1cccc(Nc2nc(N)nc(CN3CCN(c4ccc(F)cc4)CC3)n2)c1 [Compound 3c]
protein expression level of ENT1 (ENT1 [1]): unaltered | IC50 (ENT1 [2]): 2.38 µM
